Patent US8324274B2, “Drug delivery system for administration of a water soluble, cationic and amphiphilic pharmaceutically active substance” (Ardenia Invesments, Ltd., priority 2007, dated 2012)
pIC50: −log10 of the molar value. Where a name gives a salt, the structure may show the parent alone. Read-outs that look alike come from different tables or passages of the source.

What was measured:
[1] = test system: Human Lung Non-Small Cancer Cell Line A549; experiment: Cytotoxicity (cell growth inhibition, trypan blue exclusion count) in A549 cultures; details: based on concentration of doxorubicin
Description: (§1) For evaluation of cytotoxicity in vitro cells of different human tumour cell lines were purchased from American Type Culture Collection (Rockville, Md., USA): Human Breast Adenocarcinoma Cell Line MDA-MB-231 (ATCC-HTB-26, Lot 3576799), Human Ovary Adenocarcinoma Cell Line SKOV-3 (ATCC-HTB-77, Lot 3038337) and Human Lung Non-Small Cancer Cell Line A549 (ATCC-CCL-185, Lot 3244171). MDA-MB-231 cells were propagated in MEM culture medium with 2 mM L-glutamine, 10% fetal bovine serum (FBS) and antibiotics. SKOV-3 cells were cultured in McCoy's 5A culture medium, supplemented with 1.5 mM L-glutamine, 10% FBS and antibiotics. All media and supplements were purchased from Sigma-Aldrich Co. (St. Louis, Mi., USA). […]
(§2) The cell cultures in the cultivation plates were allowed to adhere for 24 hour of incubation. […] At the end of the incubation period adherent cells were detached by trypsinization and the number of viable cells was counted using trypan blue exclusion test and a hemocytometer. […] The results were expressed as mean cell number±SE and the differences between control and test series evaluated by means of Student's t-test. The drug cytotoxicity was evaluated based on the extent of cell growth inhibition.
(§3) IC50 were based on concentration of doxorubicin. Enhancement factors were calculated versus doxorubicin.

[2] = test system: Human Ovary Adenocarcinoma SKOV-3 Cell Line; experiment: Cytotoxicity (cell growth inhibition, trypan blue exclusion count) in SKOV-3 cultures; details: for docetaxel-doxorubicin mixtures based on the sum of amounts of cytostatica
Description: MDA-MB-231 cells were propagated in MEM culture medium with 2 mM L-glutamine, 10% fetal bovine serum (FBS) and antibiotics. SKOV-3 cells were cultured in McCoy's 5A culture medium, supplemented with 1.5 mM L-glutamine, 10% FBS and antibiotics. […] Cell propagation of all lines was carried out in BD Falcon™ 25 or 75 cm^2 cultivation flasks (Becton Dickinson Labware). A549 cells were cultured in Ham's F-12 culture medium with 1 mM L-glutamine, 10% FBS and antibiotics. Cell propagation of all lines was carried out in BD Falcon™ 25 or 75 cm^2 cultivation flasks.
These plates were seeded by cells at 8×10^3 cells/well for MDA-MB-231, at 10×10^3 cells/well for SKOV-3 or at 6×10^3 cells/well for A549 in a volume of 200 μl/well. Both flasks and cultivation plates were incubated for cell growth at 37° C. in a humidified atmosphere of 95% air and 5% CO2.
On day 1 after cell seeding 4 μL solutions of the formulations to be tested with different concentrations in appropriate solvents were added to wells with cultures (dose—response experiments). […] The cells were incubated within 2-4 consecutive days.
EF was calculated versus ADRIAMYCIN®. IC50 for the docetaxel-doxorubicin mixtures is based on the sum of amounts of cytostatica.
as §3

[3] = test system: Human Breast Adenocarcinoma MDA-MB-231 Cell Line; experiment: cells
Description: as §1, §2, §3

[4] = SK-OV-3, 72 h, SKOV-3, day 3, mean ± SE, read-out: IC50 day 3
[5] = SK-OV-3, 96 h, SKOV-3, day 4, mean ± SE, read-out: IC50 day 4

pIC50 ([3]; MDA-MB-231, 72 h, read-out: IC50 day 3) | pIC50 ([3]; MDA-MB-231, 96 h, read-out: IC50 day 4) | SMILES | pIC50 ([1]; 72 h, A549, day 3, mean ± SE, read-out: IC50 day 3) | pIC50 ([1]; 96 h, A549, day 4, mean ± SE, read-out: IC50 day 4) | pIC50 [2, 4] | pIC50 [2, 5]
6.72 | 7.29 | COc1cccc2c1C(=O)c1c(O)c3c(c(O)c1C2=O)C[C@@](O)(C(=O)CO)C[C@@H]3O[C@H]1C[C@H](N)[C@H](O)[C@H](C)O1 [ADRIAMYCIN ®, doxorubicin hydrochloride] | 7.92 | 7.57 | 7.07 | 7.32
 |  | CC(=O)O[C@@]12CO[C@@H]1C[C@H](O)[C@@]1(C)C(=O)[C@H](O)C3=C(C)[C@@H](OC(=O)[C@H](O)[C@@H](NC(=O)OC(C)(C)C)c4ccccc4)C[C@@](O)([C@@H](OC(=O)c4ccccc4)[C@H]21)C3(C)C [Docetaxel, docetaxel] |  |  | 7.04 | 7.55
